Measurements as given in the supplement of paper PMC4932681.

How the values were obtained:
[1] = system: BT-474 Tam1; assay: drug sensitivity score (DSS) (DSS (dimensionless)); higher = more sensitive; extreme values may be limits of the assay; settings: 4-OH-tamoxifen in medium 1 µM; 72 h
Protocol: (§1)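 FIMM FO2B library drugs were tested at 5 concentrations (10,000-fold range) for 72 h, with CellTiter-Glo viability normalised to DMSO and benzethonium chloride controls. The Drug Sensitivity Score (DSS) is computed from the fitted logistic dose-response curve (area-based; 0 = inactive). Resistant lines and the 'in 1µM tamoxifen' arms were tested in 1 µM 4-OH-tamoxifen.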

[2] = system: BT-474 Tam2; assay: as above; settings: 4-OH-tamoxifen in medium 1 µM; 72 h
Protocol: as §1

[3] = system: BT-474; assay: as above; settings: 72 h
Protocol: as §1

[4] = system: MCF-7 Tam1; assay: as above; settings: 4-OH-tamoxifen in medium 1 µM; 72 h
Protocol: as §1

[5] = system: MCF-7; assay: as above; settings: 72 h
Protocol: as §1

[6] = system: T-47D Tam1; assay: as above; settings: 4-OH-tamoxifen in medium 1 µM; 72 h
Protocol: as §1

[7] = system: T-47D Tam2; assay: as above; settings: 4-OH-tamoxifen in medium 1 µM; 72 h
Protocol: as §1

[8] = system: T-47D; assay: as above; settings: 72 h
Protocol: as §1

[9] = system: ZR-75-1 Tam1; assay: as above; settings: 4-OH-tamoxifen in medium 1 µM; 72 h
Protocol: as §1

[10] = system: ZR-75-1 Tam2; assay: as above; settings: 4-OH-tamoxifen in medium 1 µM; 72 h
Protocol: as §1

[11] = system: ZR-75-1; assay: as above; settings: 72 h
Protocol: as §1

[12] = system: BT-474 Tam1; assay: relative IC50 (midpoint of fitted logistic curve, plateau may be below 50% inhibition; CellTiter-Glo viability); higher = less potent; settings: 4-OH-tamoxifen in medium 1 µM; 72 h
Protocol: (§2)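 FIMM FO2B library drugs were plated at 5 concentrations spanning a 10,000-fold range in 384-well plates. Cells were incubated for 72 h at 37 °C and viability was read by CellTiter-Glo, normalised to DMSO (0% inhibition) and 100 µM benzethonium chloride (100% inhibition). IC50 values come from logistic dose-response fits (Breeze pipeline). Tamoxifen-resistant lines and the 'in 1µM tamoxifen' parental arms were tested in medium with 1 µM 4-OH-tamoxifen.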

[13] = system: BT-474 Tam2; assay: as above; settings: 4-OH-tamoxifen in medium 1 µM; 72 h
Protocol: as §2

[14] = system: BT-474; assay: as above; settings: 72 h
Protocol: as §2

[15] = system: MCF-7; assay: as above; settings: 72 h
Protocol: as §2

[16] = system: T-47D; assay: as above; settings: 72 h
Protocol: as §2

[17] = system: ZR-75-1 Tam1; assay: as above; settings: 4-OH-tamoxifen in medium 1 µM; 72 h
Protocol: as §2

[18] = system: ZR-75-1 Tam2; assay: as above; settings: 4-OH-tamoxifen in medium 1 µM; 72 h
Protocol: as §2

[19] = system: ZR-75-1; assay: as above; settings: 72 h
Protocol: as §2

Structure (SMILES) | drug sensitivity score [1] | drug sensitivity score [2] | drug sensitivity score ([3]; 4-OH-tamoxifen in medium 0 µM) | drug sensitivity score ([3]; 4-OH-tamoxifen in medium 1 µM) | drug sensitivity score [4] | drug sensitivity score ([5]; 4-OH-tamoxifen in medium 0 µM) | drug sensitivity score ([5]; 4-OH-tamoxifen in medium 1 µM) | drug sensitivity score [6] | drug sensitivity score [7] | drug sensitivity score ([8]; 4-OH-tamoxifen in medium 0 µM) | drug sensitivity score ([8]; 4-OH-tamoxifen in medium 1 µM) | drug sensitivity score [9] | drug sensitivity score [10] | drug sensitivity score ([11]; 4-OH-tamoxifen in medium 0 µM) | drug sensitivity score ([11]; 4-OH-tamoxifen in medium 1 µM) | relative IC50 [12] | relative IC50 [13] | relative IC50 ([14]; 4-OH-tamoxifen in medium 0 µM) | relative IC50 ([15]; 4-OH-tamoxifen in medium 0 µM) | relative IC50 ([16]; 4-OH-tamoxifen in medium 0 µM) | relative IC50 ([16]; 4-OH-tamoxifen in medium 1 µM) | relative IC50 [17] | relative IC50 [18] | relative IC50 ([19]; 4-OH-tamoxifen in medium 0 µM) | relative IC50 ([19]; 4-OH-tamoxifen in medium 1 µM) | relative IC50 ([14]; 4-OH-tamoxifen in medium 1 µM) | relative IC50 ([15]; 4-OH-tamoxifen in medium 1 µM)
CC(=O)Nc1cccc(-n2c(=O)n(C3CC3)c(=O)c3c(Nc4ccc(I)cc4F)n(C)c(=O)c(C)c32)c1 | 0 | 0 | 0 | 0.246 | 0.101 | 0 | 3.01 | 2.19 | 2.69 | 0 | 0.259 | 0 | 0 | 0 | 0 | > 250 nM | > 0.25 µM | > 250 nM | > 250 nM | > 250 nM | > 250 nM | > 250 nM | > 250 nM | > 250 nM | > 250 nM | – | –
CC(=O)c1c(C)c2cnc(Nc3ccc(N4CCNCC4)cn3)nc2n(C2CCCC2)c1=O | 0 | 0 | 0 | 0 | 0.967 | 3.32 | 3.28 | 2.49 | 1.34 | 2.46 | 0 | 1.11 | 1.63 | 0 | 0.745 | – | > 10 µM | – | 1160 nM | – | > 10000 nM | – | – | > 10000 nM | – | > 10000 nM | –
c1ccc2c(CCNc3ccc(Nc4ccncc4)cc3)c[nH]c2c1 | 5.04 | 1.44 | 0 | 3.42 | 0.0212 | 2.88 | 0.416 | 0.685 | 0.542 | 0.192 | 0 | 0.823 | 1.69 | 0.0538 | 0.973 | 3220 nM | 3.9 µM | > 10000 nM | 3720 nM | – | > 10000 nM | – | 2760 nM | – | – | 3980 nM | –
CC(C)c1c(C(=O)Nc2ccccc2)c(-c2ccccc2)c(-c2ccc(F)cc2)n1CC[C@@H](O)C[C@@H](O)CC(=O)O [Atorvastatin] | 0.517 | 2.17 | 0.471 | 0 | 0 | 0.619 | 1.69 | 3.38 | 0.823 | 2.75 | 1.73 | 3.76 | 3.56 | 4.64 | 2.87 | – | – | – | – | 1820 nM | 3210 nM | 1720 nM | 1430 nM | 1170 nM | 1650 nM | > 10000 nM | –
CNC(=O)c1ccccc1Sc1ccc2c(/C=C/c3ccccn3)n[nH]c2c1 [Axitinib] | 2.01 | 1.5 | 0.518 | 3.56 | 1.84 | 1.43 | 2.88 | 1.41 | 0.968 | 2.18 | 0.979 | 0 | 1.49 | 0 | 0.656 | 3250 nM | – | – | 3320 nM | 2770 nM | – | > 10000 nM | – | > 10000 nM | – | 1650 nM | 1480 nM
CO[C@H]1C[C@@H]2CC[C@@H](C)[C@@](O)(O2)C(=O)C(=O)N2CCCC[C@H]2C(=O)O[C@H]([C@H](C)C[C@@H]2CC[C@@H](OCCO)[C@H](OC)C2)CC(=O)[C@H](C)/C=C(\C)[C@@H](O)[C@@H](OC)C(=O)[C@H](C)C[C@H](C)/C=C/C=C/C=C/1C [Everolimus] | 1.16 | 2.18 | 7.06 | 0.135 | 0.336 | 11.6 | 8.24 | 4.62 | 3.34 | 5.82 | 2.41 | 4.45 | 9.02 | 8.05 | 4.22 | – | – | – | 1.04 nM | – | – | 3.52 nM | 1.23 nM | 1.27 nM | 3.47 nM | – | 0.952 nM
COc1cc2c(Oc3ccc(NC(=O)C4(C(=O)Nc5ccc(F)cc5)CC4)cc3F)ccnc2cc1OCCCN1CCOCC1 [Foretinib (Foretinib)] | 1.42 | 0.0003 | 0 | 1.73 | 1.72 | 0.867 | 0.0297 | 0.595 | 1.36 | 0.41 | 0.227 | 0 | 0.585 | 0 | 0 | 314 nM | – | > 1000 nM | – | – | – | – | – | > 1000 nM | – | 404 nM | –
Cn1cnc2c(F)c(Nc3ccc(Br)cc3F)c(C(=O)NOCCO)cc21 [MEK-162 (ARRY-162)] | 0 | 0 | 0 | 1.07 | 0 | 0.0194 | 1.02 | 3.1 | 0.511 | 0 | 0 | 0 | 0 | 0 | 0 | > 1000 nM | > 1 µM | > 1000 nM | – | > 1000 nM | > 1000 nM | > 1000 nM | > 1000 nM | > 1000 nM | > 1000 nM | – | –
